Consider 104 compounds from PubChem BioAssay AID1996.

≈ marks a conversion by molar mass, not a printed value. Bounds are passed on as bounds.

For this data set the following is noted: buffer; pH 7.4; 200.0 µM.
`COc1ccccc1-c1c(NC(=O)C(C)C)n(C)c2ccccc2c1=O` displayed a kinetic solubility greater than 52.6 µg/mL. The same measure for `COc1nc(C)ccc1-c1noc(-c2cccs2)n1`: 2.5 µg/mL (≈ 9.15 µM). To `COCCCN(CC(=O)O)S(=O)(=O)c1ccccc1` belongs greater than 43.1 µg/mL; to `CC(=O)N1CCN(Cc2ccc(Cl)nc2)CC1`, greater than 38.1 µg/mL; to `Cc1cc(-c2ccc(Cl)cc2Cl)c(C#N)c(=O)[nH]1`, 3.4 µg/mL (≈ 12.2 µM).

With `CCOC(=O)C1CCN(C(=O)c2cc3c(C)cc(C)cc3[nH]2)CC1`, the kinetic solubility was 7.7 µg/mL (≈ 23.4 µM).

`CCCC(=O)Nc1cc(C(F)(F)F)ccc1N1CCOCC1` had a kinetic solubility of 44.6 µg/mL (≈ 141 µM).

`COc1ccc(CNC(=O)c2[nH]c(C)c(C(C)=O)c2C)cc1` displayed a solubility (kinetic) greater than 45.1 µg/mL. To `Cc1ccc(C(=O)N(CC(C)C)c2nc3ccccc3s2)o1` belongs 0.5 µg/mL (≈ 1.59 µM); to `CC(C)c1ccc(S(=O)(=O)NC2CCCC2)cc1`, greater than 40.1 µg/mL; to `O=C(NC1CCN(C(=O)Nc2ccc(F)cc2)CC1)c1ccc(F)cc1`, 3.7 µg/mL (≈ 10.3 µM). `COc1ccc(C2(CNC(=O)c3cccs3)CCOCC2)cc1` returned a solubility (kinetic) of 48.6 µg/mL (≈ 147 µM). Compound `COc1ccc(S(=O)(=O)N2CCCCCC2)cc1C(=O)NCc1ccco1` yielded a solubility (kinetic) of 46.5 µg/mL (≈ 118 µM). The compound `COc1ccc2c(c1)-c1nc(/N=C/c3cccc(OC)c3O)sc1CC2` returned a solubility (kinetic) greater than 55 µg/mL.

`Cc1ccccc1C(=O)Nc1ccccc1C(=O)NC1CC1` yielded a solubility (kinetic) greater than 44.2 µg/mL. The same measure for `CC1CN(CC(=O)Nc2ccc(Br)cn2)CC(C)O1` (centres undefined): greater than 49.2 µg/mL.

The compound `CC(=O)Nc1ccc(S(=O)(=O)NC2Cc3ccccc3C2)cc1` showed a kinetic solubility of 6.8 µg/mL (≈ 20.6 µM). Compound `NC(=O)c1cc[n+](Cc2ccccc2Cl)cc1.[Br-]` returned a kinetic solubility greater than 49.1 µg/mL. The same measure for `COC(=O)c1cc(C)ccc1OCc1ccc([N+](=O)[O-])cc1`: less than 0.6 µg/mL; for `CCCN(CC(=O)Nc1ccccc1OC)C(=O)CC1CCCC1`: greater than 49.9 µg/mL. To `CCCCC12CN3CC(C)(CN(C1)C3c1ccc([N+](=O)[O-])o1)C2=O` (centres undefined) belongs greater than 50 µg/mL. The same measure for `O=[N+]([O-])c1ccccc1S(=O)(=O)NC1CCCCCCC1`: 20.1 µg/mL (≈ 64.3 µM); for `Cc1ccc(S(=O)(=O)NCC(=O)Nc2ccc3c(c2)OCO3)cc1`: 49.4 µg/mL (≈ 142 µM).

The compound `O=C1CC(Sc2ccc(Cl)cc2)C(=O)N1Cc1ccncc1` (centres undefined) came in with a solubility (kinetic) of 18.9 µg/mL (≈ 56.8 µM). For the compound `S=C1SCN(Cc2ccco2)CN1Cc1ccco1`, the kinetic solubility was greater than 44.2 µg/mL. For the compound `FC(F)Sc1nc2ccccc2[nH]1`, the kinetic solubility was greater than 30 µg/mL. Turning to `COc1ccc(Br)c(C(=O)OCC(=O)NC(=O)NC2CCCC2)c1`, the kinetic solubility was determined as 19.5 µg/mL (≈ 48.8 µM). Turning to `CCC(CC)C(=O)NCc1ccc(Cl)cc1`, the solubility (kinetic) is greater than 36 µg/mL. To `CCOC(=O)c1c(C)n(CC)c2c1cc(O)c1ccccc12` belongs less than 0.6 µg/mL. To `O=C(CSc1cccc[n+]1[O-])Nc1ccc(Cl)cc1F` belongs 15.1 µg/mL (≈ 48.3 µM); to `CCc1ccccc1Nc1nc2ccccc2[nH]1`, 33.2 µg/mL (≈ 140 µM); to `COc1ccc(N(CC(=O)N2CCOCC2)S(C)(=O)=O)cc1Cl`, greater than 54.4 µg/mL.

`Cc1cc(C(C)(C)C)cc(C)c1CCNC(=O)c1ccc[n+]([O-])c1` displayed a kinetic solubility greater than 49 µg/mL. In turn, `NC(CCCCCP(=O)(c1ccccc1)c1ccccc1)C(=O)O` (centres undefined) gave a solubility (kinetic) of 40.4 µg/mL (≈ 117 µM). In turn, `O=C(NCc1ccccc1)N1CCOCC1` yielded a solubility (kinetic) greater than 33 µg/mL.

`CC(C)C(NC(=O)c1ccccc1NC(=O)C(C)(C)C)C(=O)N1CCOCC1` (centres undefined) returned a kinetic solubility of 37 µg/mL (≈ 95 µM).

The compound `COc1ccc(NC(=O)NC2(C)CCS(=O)(=O)C2)cc1` (centres undefined) gave a kinetic solubility greater than 44.8 µg/mL. Consider `Cc1ccc(C)c(C(C)NC(=O)c2ccc(Br)o2)c1` (centres undefined), for which the solubility (kinetic) worked out at 42.1 µg/mL (≈ 131 µM). Compound `Cc1ccc(C)c(OC(=O)c2cccnc2)c1` showed a kinetic solubility of 16.9 µg/mL (≈ 74.4 µM). Regarding `COc1ccccc1/C=C/C(=O)Nc1cccnc1`, the solubility (kinetic) was greater than 38.1 µg/mL. As for `CCc1ccccc1NC(=O)c1ccccc1N1C(=O)C2C3C=CC(C3)C2C1=O` (centres undefined), the solubility (kinetic) stood at 43.4 µg/mL (≈ 112 µM). Take `Cc1cc2ccccn2c1C(=O)c1ccc(C#N)cc1`: the solubility (kinetic) came out at 1.9 µg/mL (≈ 7.3 µM). The same measure for `COc1ccc(/C(C)=N/N2C(C)CCCC2C)c(OC)c1` (centres undefined): greater than 43.6 µg/mL.

`O=C(CN1C(=O)NC2(CCCC2)C1=O)OCc1ccccc1` returned a solubility (kinetic) of 21.8 µg/mL (≈ 72.1 µM). The same measure for `CC(C)N(C(=O)CSc1nc2ccccc2c(=O)[nH]1)C(C)C`: 46.4 µg/mL (≈ 145 µM); for `Cc1cccc(NS(=O)(=O)c2ccc3[nH]c(=O)cc(C(=O)O)c3c2)c1`: 48.2 µg/mL (≈ 134 µM); for `CC(=O)CSc1nnc2cc(C)c3ccccc3n12`: greater than 40.7 µg/mL. To `O=C(O)C1CCC(N2C(=O)c3cccc([N+](=O)[O-])c3C2=O)CC1` (centres undefined) belongs greater than 47.7 µg/mL; to `Fc1cc(F)nc(NCc2ccccc2)n1`, 12.2 µg/mL (≈ 55.2 µM).

Compound `CCC(C)NC(=O)N1c2ccccc2Sc2ccccc21` (centres undefined) displayed a solubility (kinetic) of 28 µg/mL (≈ 93.8 µM).

As for `CCN1C(=O)N(CC)c2cccc3cccc1c23`, the kinetic solubility worked out at 1.6 µg/mL (≈ 6.66 µM). For `O=C(CSc1nccc(=O)[nH]1)Nc1ccc2c(c1)OCCO2`, the solubility (kinetic) stood at 40.8 µg/mL (≈ 128 µM). Compound `O=C(Nc1ccc(NC(=O)c2ccccc2F)cc1)c1ccccc1F` returned a kinetic solubility of less than 0.4 µg/mL. To `C#Cc1cccc(NC(=O)C2CCN(C(C)=O)CC2)c1` belongs greater than 40.5 µg/mL; to `Nc1cccc2cnccc12`, 1.4 µg/mL (≈ 9.71 µM). `O=C(COC(=O)Cc1ccc(Cl)cc1)Nc1ccccc1F`: the kinetic solubility was found to be 20.8 µg/mL (≈ 64.6 µM).

Regarding `CCN(C(=O)c1ccco1)c1nnc(-c2cccnc2)s1`, the kinetic solubility was greater than 45.1 µg/mL. Compound `O=C(COc1ccc(S(=O)(=O)N2CCCCC2)cc1)N1CCCC1` returned a solubility (kinetic) greater than 52.9 µg/mL. In turn, `O=C(CN1CCCCCC1)NCc1ccccc1` had a solubility (kinetic) of 34.8 µg/mL (≈ 141 µM). The compound `Cc1c(-c2ccc(Cl)cc2)[n+](=O)c2c(n1[O-])CCCC2` had a kinetic solubility greater than 43.6 µg/mL. `Cc1ccc(NC(=S)NC(=O)c2cccs2)cc1F` registered a kinetic solubility of 1.6 µg/mL (≈ 5.44 µM).

Compound `Br.CC(C)(C)c1ccc(C2=CSC3=NCCN23)cc1` registered a solubility (kinetic) of 49.4 µg/mL.

As for `CC(C)Nc1nc(-c2cccnc2)nc(-c2ccccc2)c1C#N`, the solubility (kinetic) is less than 0.1 µg/mL. To `Cc1ccc(C2=NOC(=O)/C2=C\c2ccccc2)cc1` belongs 33.7 µg/mL (≈ 128 µM); to `COc1ccc(NC(=O)C2CC2)cc1OC1CCCC1`, 16 µg/mL (≈ 58.1 µM); to `O=S(=O)(NCC1CCCO1)c1ccccc1` (centres undefined), greater than 36.2 µg/mL. To `CCc1ccc2[nH]c(C(=O)Nc3ccc(C)c(F)c3)cc2c1` belongs 0.9 µg/mL (≈ 3.04 µM); to `Cc1cccc(CSc2nc3c(c(=O)n2C)SCC3)c1`, 11.6 µg/mL (≈ 38.1 µM). In the case of `O=C(NCc1ccco1)/C(=C\c1ccco1)NC(=O)c1ccco1`, the solubility (kinetic) stood at 47.3 µg/mL (≈ 145 µM). To `Fc1ccc(CNC(=S)NC2CCCCCC2)cc1` belongs 28.3 µg/mL (≈ 101 µM). As to `O=C1NC(=O)/C(=C\c2cn(Cc3ccccc3F)c3ccccc23)N1`, the kinetic solubility is 0.8 µg/mL (≈ 2.39 µM). The compound `Cc1cccc(C(=O)Nc2cccnc2Cl)c1` registered a kinetic solubility greater than 37 µg/mL. Compound `CC(C)S(=O)(=O)c1csc(NC(=O)Nc2ccc(Cl)cc2)c1` yielded a kinetic solubility of 2.8 µg/mL (≈ 7.8 µM). To `Cc1onc(-c2ccccc2)c1-c1ccnc(N)n1` belongs 33.8 µg/mL (≈ 134 µM); to `Cc1ccccc1Cn1c(C)nc2ccc([N+](=O)[O-])cc2c1=O`, 6.9 µg/mL (≈ 22.3 µM); to `C/C(=C\c1ccc(Cl)cc1)C(=O)c1c(C)cc(C)[nH]c1=O`, 42.8 µg/mL (≈ 142 µM). On to `Cc1ccc(NC(=O)COC(=O)[C@@H]2CC(O)CN2S(=O)(=O)c2ccc3c(c2)OCCO3)cc1` (some centres undefined), for which the kinetic solubility is greater than 71.5 µg/mL. The same measure for `CC(CC(=O)Nc1ccccc1)n1ccnc1` (centres undefined): greater than 34.4 µg/mL; for `CCC(C)(C)NC(=O)/C=C/c1ccccc1[N+](=O)[O-]`: 31.4 µg/mL (≈ 120 µM).

For the compound `O=C(OCC(=O)N1CCCC1=O)c1nc(Cl)c(Cl)c(Cl)c1Cl`, the solubility (kinetic) amounted to 32.9 µg/mL (≈ 85.2 µM). Take `CN(C)c1cccc(C(=O)NCc2ccc3c(c2)OCO3)c1`: the kinetic solubility is greater than 44.8 µg/mL. For `COC(=O)CN1CC(=O)N(c2ccccc2)C1=S`, the solubility (kinetic) was greater than 39.6 µg/mL. Compound `Cc1ccc2nc3c(nc2c1C)C(O)=C3O` had a kinetic solubility of 24.7 µg/mL (≈ 115 µM). The same measure for `CCOC1=CC(=O)N(Cc2ccccc2)C1`: greater than 32.6 µg/mL; for `O=C1Nc2ccc(Cl)cc2C(=O)C1(F)c1ccccc1` (centres undefined): 1.7 µg/mL (≈ 5.87 µM); for `O=C(O)C(NS(=O)(=O)c1ccccc1)C(O)c1ccccc1` (centres undefined): 33.9 µg/mL (≈ 105 µM). On to `CCc1ccc2[nH]c(C(=O)Nc3ccc4c(c3)OCO4)cc2c1`, for which the kinetic solubility was found to be 0.8 µg/mL (≈ 2.59 µM). To `C=CCN1C(=O)C2(OCCO2)c2cc(C)ccc21` belongs greater than 36.8 µg/mL; to `COc1ccc(CNc2c(CO)cnc3c2cnn3C)cc1`, greater than 44.8 µg/mL; to `Cc1nc(-c2ccccn2)nc(SCC(=O)c2ccc(F)cc2)c1Cl`, 2.4 µg/mL (≈ 6.42 µM). For the compound `N#CCC(=O)Nc1ccc(C(F)(F)F)cc1N1CCOCC1`, the solubility (kinetic) was 38.3 µg/mL (≈ 122 µM). With `Cc1cc(C(=O)NCC2CCCCC2)ccc1[N+](=O)[O-]`, the solubility (kinetic) is 2.3 µg/mL (≈ 8.32 µM). The same measure for `CN(c1ccc(OCC(=O)Nc2cc(Cl)ccc2C(=O)O)cc1)S(=O)(=O)c1ccc(F)cc1`: greater than 73.9 µg/mL; for `Cc1ccc(-c2cn(-c3ccccc3F)c(=S)[nH]2)cc1`: 1.1 µg/mL (≈ 3.87 µM). To `COc1ccc(OCC(=O)Nc2ccc3c(c2)CCC3)cc1` belongs 19.3 µg/mL (≈ 64.9 µM); to `CCOc1nc(C)cc(COC)c1C(N)=O`, greater than 33.6 µg/mL.

Consider `CC(C)(C)C(=O)N1CCN(c2ncccc2C(F)(F)F)CC1`, for which the solubility (kinetic) was greater than 47.3 µg/mL. For the compound `COc1ccc(/C=C/C2=CC(C)(C)NC(=S)N2)cc1`, the kinetic solubility worked out at 9.4 µg/mL (≈ 34.3 µM).

Compound `Cl.NCCNC(=O)c1c(O)c2cccc3c2n(c1=O)CCC3` returned a solubility (kinetic) of 48.3 µg/mL.

As to `CC(C)(C)C(=O)N1CCN(C(=O)c2ccco2)CC1`, the kinetic solubility is greater than 39.6 µg/mL.

`COc1ccc(N2CCN(C(=O)c3ccccc3F)CC2)c([N+](=O)[O-])c1` displayed a kinetic solubility of 40.7 µg/mL (≈ 113 µM). `Cc1[nH]c(=O)[nH]c(=S)c1C(=O)Nc1ccc(Cl)c(Cl)c1` came in with a solubility (kinetic) of 36.9 µg/mL (≈ 112 µM). The compound `Cl.O=C(Nc1ccccc1)N1CCNCC1` returned a solubility (kinetic) of 30.6 µg/mL. The same measure for `COc1ccc(OC)c(C(C)NC(=S)NC2CCCCC2)c1` (centres undefined): 28 µg/mL (≈ 86.8 µM).

In general, solubility (kinetic) refers to the concentration staying in solution when a stock, usually in DMSO, is diluted into the medium.
